Legend:
Format in all cases: biochemical
[1] = target: T1, Aurora A kinase (Homo sapiens, UniProt O14965); test: Aurora A kinase assay ([γ-33P]ATP, CHOCKtide substrate); details: for inhibition at 1 µM: 1.0 μM test compound
T1 construct: purchased Upstate
T1 sequence (O14965 1-403): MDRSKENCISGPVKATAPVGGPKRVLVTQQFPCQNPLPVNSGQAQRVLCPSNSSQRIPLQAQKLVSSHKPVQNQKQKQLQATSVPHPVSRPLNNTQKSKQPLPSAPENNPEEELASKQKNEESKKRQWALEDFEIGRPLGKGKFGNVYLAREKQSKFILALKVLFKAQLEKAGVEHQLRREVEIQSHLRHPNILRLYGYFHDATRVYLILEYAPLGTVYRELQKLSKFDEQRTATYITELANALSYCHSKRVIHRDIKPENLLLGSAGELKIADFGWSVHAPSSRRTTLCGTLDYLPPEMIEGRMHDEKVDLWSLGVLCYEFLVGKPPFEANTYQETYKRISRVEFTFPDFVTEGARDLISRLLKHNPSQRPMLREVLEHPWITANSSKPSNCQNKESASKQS
Procedure: (§1) Inhibition of Aurora Kinase by the compounds disclosed herein was determined by incubating Aurora kinase, substrate, and a test compound together for a period of time followed by quantifying the resultant phosphorylated product. Specifically, in a well of a 96-well round bottom plate, 25 μL of a reaction mixture containing (1) a test compound disclosed herein (diluted from 9 μM to the desired final concentration), [γ-33P]ATP/ATP mix (10 μM), CHOCKtide (1 μg, Genesis Biotech Inc.), and Aurora-A (1 ng, purchased from Upstate); or (2) a test compound disclosed herein (diluted from 9 μM to the desired final concentration), [γ-33P]ATP/ATP mix (40 μM), CHOCKtide (1 μg, Genesis Biotech Inc.), and Aurora-B (2.5 ng, purchased from Cell signaling); was prepared and incubated at 33° C. for 30 minutes. The reaction was then stopped by adding 5 μL of 3% phosphoric acid. The resultant solution (30 μL) was later harvested by a UniFilter Plate GF/B (PerkinElmer) followed by adding 30 μL of the scintillation cocktail (MicroScint 20, PerkinElmer) to the well. The radioactivity retained on the filter membrane was measured by a luminescence counter (PerkinElmer). IC50 value is defined as the concentration of the test compound which achieves a half-maximal inhibition of the kinase activity.

[2] = target: T2, c-Met kinase (Homo sapiens, UniProt P08581); test: c-Met kinase assay (33P incorporation into Poly(Glu-Tyr)); details: 500 nM test compound
T2 construct: recombinant N-terminal 6×His-tagged c-Met kinase domain construct expressed from baculovirus; 6xHis (N); made in house
Procedure: Inhibition of c-Met kinase activity by compounds disclosed herein was quantified by measuring the amount of [^33P] incorporated into the substrate in the presence of a test compound. Briefly, a reaction mixture of 25 μL final volume containing 5 ng of c-Met kinase (obtained by purifying recombinant N-terminal 6×His-tagged c-Met kinase domain construct expressed from baculovirus), 1 μg of the substrate (Poly (Glu-Tyr, 4:1, Sigma)), kinase reaction buffer (20 mM MOPS pH 7.0, 1 mM EDTA, 5% glycerol, 0.01% Brij-35, 0.1% β-mercaptoethanol, 1 mg/mL BSA, 100 μM ATP, 0.1 μCi per well [^33P]-γ-ATP (2,500-3,000 Ci/mmol)), and a test compound (500 nM, diluted with 4% DMSO) or DMSO (as the control) was incubated at 30° C. for 30 minutes. The reaction was stopped by adding 5 μL of 3% phosphoric acid solution. The resultant reaction solution was then harvested onto a filter plate (UniFilter-96 GF/B, PerkinElmer), washed 20 times for 5 min with d.d. H2O, and followed by the addition of 30 μL of MicroScint™-20 Cocktail (PerkinElmer). The plate was then sealed and counted using a TopCount scintillation detector (PerkinElmer). The percentage of inhibition rate of the test compound was calculated by dividing the retained radioactivity of the test sample with the retained radioactivity of the control sample and shown in Table 3.

[3] = target: T3, Aurora B kinase (Homo sapiens, UniProt Q96GD4); test: Aurora B kinase assay ([γ-33P]ATP, CHOCKtide substrate); details: for inhibition at 1 µM: 1.0 μM test compound
T3 construct: purchased Cell signaling
Procedure: as §1

T3 sequence (Q96GD4 whole entry): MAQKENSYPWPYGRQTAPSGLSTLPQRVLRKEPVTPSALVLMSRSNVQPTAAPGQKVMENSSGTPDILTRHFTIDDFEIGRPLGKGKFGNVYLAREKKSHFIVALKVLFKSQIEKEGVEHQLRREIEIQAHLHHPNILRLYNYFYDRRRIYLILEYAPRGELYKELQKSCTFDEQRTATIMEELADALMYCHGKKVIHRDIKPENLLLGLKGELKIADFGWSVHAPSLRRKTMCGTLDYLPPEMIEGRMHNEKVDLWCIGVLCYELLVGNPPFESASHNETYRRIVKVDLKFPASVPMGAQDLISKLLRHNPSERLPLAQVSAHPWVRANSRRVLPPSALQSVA
T2 sequence (P08581 1078-1345 limits assumed): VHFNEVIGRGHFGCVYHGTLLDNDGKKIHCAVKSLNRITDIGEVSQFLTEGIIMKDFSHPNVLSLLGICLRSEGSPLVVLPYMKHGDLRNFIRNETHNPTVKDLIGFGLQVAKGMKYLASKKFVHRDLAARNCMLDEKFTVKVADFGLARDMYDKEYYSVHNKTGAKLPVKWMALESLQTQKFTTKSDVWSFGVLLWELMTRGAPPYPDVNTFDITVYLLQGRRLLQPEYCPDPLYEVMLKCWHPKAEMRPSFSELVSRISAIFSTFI

CCOC(=O)CCc1c(/C=C2\C(=O)Nc3ccc(/N=C/c4ccsc4)cc32)[nH]c2c1C(=O)CCC2 [DCB-70180, ethyl 3-(4-oxo-2-((Z)-(2-oxo-5-((E)-thiophen-3-ylmethyleneamino)indolin-3-ylidene)methyl)-4,5,6,7-tetrahydro-1H-indol-3-yl)propanoate]
inhibition at 1 µM [1]: 71.5% | inhibition at 0.5 µM [2]: 5.1% | IC50 [3]: 866 nM | inhibition at 1 µM [3]: 47.4%

CCOC(=O)CCc1c(/C=C2\C(=O)Nc3ccc(/N=C/c4ccc(F)c(C(F)(F)F)c4)cc32)[nH]c2c1C(=O)CCC2 [DCB-70178, ethyl 3-(2-((Z)-(5-((E)-4-fluoro-3-(trifluoromethyl)benzylideneamino)-2-oxoindolin-3-ylidene)methyl)-4-oxo-4,5,6,7-tetrahydro-1H-indol-3-yl)propanoate]
inhibition at 1 µM [1]: 31.2% | inhibition at 0.5 µM [2]: 7.8% | inhibition at 1 µM [3]: 1.9%

CCOC(=O)CCc1c(/C=C2\C(=O)Nc3ccc(S(=O)(=O)N4CCc5ccccc54)cc32)[nH]c2c1C(=O)CCC2 [DCB-70210, (Z)-ethyl 3-(2-((5-(indolin-1-ylsulfonyl)-2-oxoindolin-3-ylidene)methyl)-4-oxo-4,5,6,7-tetrahydro-1H-indol-3-yl)propanoate]
IC50 [1]: 100 nM | inhibition at 1 µM [1]: 74.6% | inhibition at 0.5 µM [2]: 75.3% | inhibition at 1 µM [3]: 45.5%

CCCCCCC#Cc1ccc2c(c1)/C(=C/c1[nH]c3c(c1CCC(=O)O)C(=O)CCC3)C(=O)N2 [DCB-70173, (Z)-3-(2-((5-(oct-1-ynyl)-2-oxoindolin-3-ylidene)methyl)-4-oxo-4,5,6,7-tetrahydro-1H-indol-3-yl)propanoic acid]
inhibition at 1 µM [1]: 13.6% | inhibition at 0.5 µM [2]: 13.7% | inhibition at 1 µM [3]: -9.8%

CC(=O)c1c(C)[nH]c(/C=C2\C(=O)Nc3ccc(NS(=O)(=O)c4ccccc4)cc32)c1CCC(=O)N1CCN(C)CC1 [DCB-70219, (Z)-N-(3-((4-acetyl-5-methyl-3-(3-(4-methylpiperazin-1-yl)-3-oxopropyl)-1H-pyrrol-2-yl)methylene)-2-oxoindolin-5-yl)benzenesulfonamide]
inhibition at 1 µM [1]: 25.7% | inhibition at 0.5 µM [2]: 17.7% | inhibition at 1 µM [3]: 14.8%

CCOC(=O)CCc1c(/C=C2\C(=O)Nc3ccc(NC(=O)Nc4ccc(Cl)cc4Cl)cc32)[nH]c2c1C(=O)CCC2 [DCB-70184, (Z)-ethyl 3-(2-((5-(3-(2,4-dichlorophenyl)ureido)-2-oxoindolin-3-ylidene)methyl)-4-oxo-4,5,6,7-tetrahydro-1H-indol-3-yl)propanoate]
inhibition at 1 µM [1]: 6.6% | inhibition at 0.5 µM [2]: 8.7% | inhibition at 1 µM [3]: 6.8%

CCCCCCC#Cc1ccc2c(c1)/C(=C/c1[nH]c3c(c1CCC(=O)OCC)C(=O)CCC3)C(=O)N2 [DCB-70172, (Z)-ethyl 3-(2-((5-(oct-1-ynyl)-2-oxoindolin-3-ylidene)methyl)-4-oxo-4,5,6,7-tetrahydro-1H-indol-3-yl)propanoate]
inhibition at 1 µM [1]: -3.1% | inhibition at 0.5 µM [2]: 10.4% | inhibition at 1 µM [3]: -3.2%

CC(=O)c1c(C)[nH]c(/C=C2\C(=O)Nc3ccc(F)cc32)c1CCC(=O)N1CCN(C)CC1 [DCB-70207, (Z)-3-((4-acetyl-5-methyl-3-(3-(4-methylpiperazin-1-yl)-3-oxopropyl)-1H-pyrrol-2-yl)methylene)-5-fluoroindolin-2-one]
inhibition at 1 µM [1]: 10.3% | inhibition at 0.5 µM [2]: 21.1% | inhibition at 1 µM [3]: 6.8%

CCOC(=O)CCc1c(/C=C2\C(=O)Nc3ccc(S(=O)(=O)N4CCc5ccccc54)cc32)[nH]c2c1C(=O)CC(C)(C)C2 [DCB-70160, (Z)-ethyl 3-(2-((5-(indolin-1-ylsulfonyl)-2-oxoindolin-3-ylidene)methyl)-6,6-dimethyl-4-oxo-4,5,6,7-tetrahydro-1H-indol-3-yl)propanoate]
inhibition at 1 µM [1]: 5% | inhibition at 0.5 µM [2]: 59.1% | inhibition at 1 µM [3]: 6.1%

CCOC(=O)CCc1c(/C=C2\C(=O)Nc3ccc(NCc4ccc(OC)cc4)cc32)[nH]c2c1C(=O)CCC2 [DCB-70175, (Z)-ethyl 3-(2-((5-(4-methoxybenzylamino)-2-oxoindolin-3-ylidene)methyl)-4-oxo-4,5,6,7-tetrahydro-1H-indol-3-yl)propanoate]
inhibition at 1 µM [1]: 30.7% | inhibition at 0.5 µM [2]: 17.3% | inhibition at 1 µM [3]: 8.4%

CN1CCN(C(=O)CCc2c(/C=C3\C(=O)Nc4ccc(NS(=O)(=O)c5ccccc5)cc43)[nH]c3c2C(=O)CCC3)CC1 [DCB-70218, (Z)-N-(3-((3-(3-(4-methylpiperazin-1-yl)-3-oxopropyl)-4-oxo-4,5,6,7-tetrahydro-1H-indol-2-yl)methylene)-2-oxoindolin-5-yl)benzenesulfonamide]
IC50 [1]: 823 nM | inhibition at 1 µM [1]: 62% | inhibition at 0.5 µM [2]: 9.2% | inhibition at 1 µM [3]: 54.2%

CCCCCCC#Cc1ccc2c(c1)NC(=O)/C2=C\c1[nH]c2c(c1CCC(=O)O)C(=O)CCC2 [DCB-70171, (Z)-3-(2-((6-(oct-1-ynyl)-2-oxoindolin-3-ylidene)methyl)-4-oxo-4,5,6,7-tetrahydro-1H-indol-3-yl)propanoic acid]
inhibition at 1 µM [1]: 73% | inhibition at 0.5 µM [2]: 18.2% | inhibition at 1 µM [3]: 17.4%

CCOC(=O)CCc1c(/C=C2\C(=O)Nc3ccc(NC(C)c4ccccc4)cc32)[nH]c2c1C(=O)CCC2 (stereo not shown) [DCB-70179, (Z)-ethyl 3-(4-oxo-2-((2-oxo-5-(1-phenylethylamino)indolin-3-ylidene)methyl)-4,5,6,7-tetrahydro-1H-indol-3-yl)propanoate]
inhibition at 1 µM [1]: 59.9% | inhibition at 0.5 µM [2]: 17.9% | inhibition at 1 µM [3]: 40.1%

CCOC(=O)CCc1c(/C=C2\C(=O)Nc3ccc(NS(=O)(=O)c4cc(F)cc(F)c4)cc32)[nH]c2c1C(=O)CCC2 [DCB-70189, (Z)-ethyl 3-(2-((5-(3,5-difluorophenylsulfonamido)-2-oxoindolin-3-ylidene)methyl)-4-oxo-4,5,6,7-tetrahydro-1H-indol-3-yl)propanoate]
IC50 [1]: 77.9 nM | inhibition at 1 µM [1]: 91.4% | inhibition at 0.5 µM [2]: 14% | IC50 [3]: 177 nM | inhibition at 1 µM [3]: 84%

CCN(CC)CCCc1c(/C=C2\C(=O)Nc3ccc(S(=O)(=O)Cc4c(Cl)cccc4Cl)cc32)[nH]c2c1C(=O)CCC2 [DCB-70222, (Z)-5-(2,6-dichlorobenzylsulfonyl)-3-((3-(3-(diethylamino)propyl)-4-oxo-4,5,6,7-tetrahydro-1H-indol-2-yl)methylene)indolin-2-one]
inhibition at 1 µM [1]: 95.7% | inhibition at 0.5 µM [2]: 95.6% | inhibition at 1 µM [3]: 83.2%

CCOC(=O)CCc1c(/C=C2\C(=O)Nc3ccc(S(=O)(=O)Cc4c(Cl)cccc4Cl)cc32)[nH]c2c1C(=O)CC(C)(C)C2 [DCB-70158, (Z)-ethyl 3-(2-((5-(2,6-dichlorobenzylsulfonyl)-2-oxoindolin-3-ylidene)methyl)-6,6-dimethyl-4-oxo-4,5,6,7-tetrahydro-1H-indol-3-yl)propanoate]
inhibition at 1 µM [1]: 5.2% | inhibition at 0.5 µM [2]: 85.4% | inhibition at 1 µM [3]: 6.1%

O=C(O)CCc1c(/C=C2\C(=O)Nc3ccc(NS(=O)(=O)Cc4ccccc4)cc32)[nH]c2c1C(=O)CCC2 [DCB-70198, (Z)-3-(4-oxo-2-((2-oxo-5-(phenylmethylsulfonamido)indolin-3-ylidene)methyl)-4,5,6,7-tetrahydro-1H-indol-3-yl)propanoic acid]
IC50 [1]: 62.8 nM | inhibition at 1 µM [1]: 96.1% | inhibition at 0.5 µM [2]: 20.2% | IC50 [3]: 402 nM | inhibition at 1 µM [3]: 69.8%

— US7897602B2, “Indolinone compounds as kinase inhibitors” (Development Center for Biotechnology, priority 2009, dated 2011)
